Assay results from patent publication US20230265393A1, “COMPOSITION AND METHODS FOR PRODUCING ADULT LIVER ORGANOIDS” (Rutgers, the State University of New Jersey, priority 2021, published 2023).

Key:
Type in all cases: cell-based, human
primary hepatocytes = assay: 3D organoid culture of adult donor-derived primary hepatocytes (HepAOs): organoid formation and expansion; settings: single hepatocyte suspensions from adult donors, supplemented EM, over 2 weeks (FIG. 1E)
Description: Human hepatic cells were counted and seeded at a concentration of 100 cells per μL of the ECM Matrigel™ (Corning™). The cell-ECM mix were seeded on 24 well plates Greiner™) that had been incubated 24 hours prior at 37° C. A total of 50 μL of Matrigel™ were added to the center of each well to form a dome shaped chamber and incubated for 5-8 minutes at 37° C. before adding 500 μμL of isolation medium to each well. Media specifications and storage times are indicated.
After 4 days, the isolation medium was substituted for expansion medium (EM) containing 10 μM ROCK inhibitor (Y-27632). The EM was replenished three times per week.
After the first 6 days in culture, the ROCK inhibitor was removed from the media. The cells within the ECM mix were expanded for 14 days to form organoids. After 14 days, the media was supplemented with 25 ng/mL of BMP7, and the organoids were cultured for 5 days before replacing the media with hepatocyte differentiation medium (DM). The DM were replenished every 3 days. At day 7 of differentiation, the organoids were used for analyses. […]
We assessed the organoid-forming efficiency at one week in single cell derived organoids (FIG. 1B and FIG. 1C). […]

HepG2 cells = assay: 3D organoid culture of HepG2 cells (HepGOs): organoid counts; settings: compared to serum-containing growth media (HepG2 GM) (FIG. 3B)
From the text: Well-differentiated hepatoma cell lines HepG2, PLC/PRF/5, and HuH7 were maintained as previously described. In initial studies, classical culture media was used, containing high glucose concentration (4.5 g/L) corresponding to systemic hyperglycemia. Low glucose concentrations corresponding to normoglycemia (1 g/L) were utilized in parallel to study the effects on cell proliferation. HepG2 cells were first cultured in monolayer. Once 80-90% confluence was reached the cells were collected and used to start the organoid culture. HepGOs were generated on 48 well tissue culture plates (Grenier™). The plates were left overnight at 37° C. before using them to plate the Matrigel™ matrix. Cells were plated at a concentration of approximately 40 cells per μL of Matrigel™. We used a 25 μL drop/well to form the organoid dome at the center and the organoid dome were overlaid with 250 μLs of human expansion medium (EM) with the multiple EM variations tested. The plates were then incubated for 7 days under standard tissue culture conditions (37° C. and 5% CO2). Media was changed every other day. After 7 days of expansion, the media was replaced with differentiation media (DM). The organoids were cultured for an additional 7 days, at which point the organoids were used for analysis.

HepGOs = assay: Glucose production assay in HepGOs; settings: HepGOs expanded in EM+F+OSM, 24-hour starvation, 24 hours production (FIG. 7D)
Description: Prior to each glucose production assay, organoid cells were serum starved for 3 and 24 hours. The assay was done in 3D organoid culture media, containing no glucose or pyruvate. For substrate glucose production assays, the glucose production basal media (BM) were supplemented with either glycerol, glucagon, or a combination of both. Data were obtained by obtaining media from wells that contained 12-14 Matrigel™ droplets containing approximately 1,400 organoids. Glucose measurements were done enzymatically with a Glucose Assay Kit (Abcam™).
The HepGOs were starved for 3 or 24 hours and then allowed to produce glucose for 24 hours. The glucose production basal media (BM) was supplemented with either glycerol, glucagon, or a combination of the two. Data was obtained pooled organoids with a total of ˜70,000 organoid cells. The scale bar is 100 μm. (**p<0.01, *p<0.05).

PCK1 = assay: Q-PCR expression of PCK1 in organoids; settings: fresh or frozen and re-expanded organoids, EM conditions C3-C5 (FIG. 5)
Description: (§1) RNA was first extracted from the differentiated organoids using Trizol™. RNA was used for cDNA synthesis using the iScript Kit (BioRad™). Quantitative PCR (Q-PCR) was performed for targets of interest including G6PC, PCK1, and AFP using Bio-Rad™ CFX96. Bio Rad™'s SYBR Green (SG), a asymmetrical cyanine dye used as a nucleic acid stain in Q-PCR super mix was used with the target-specific primers. See Table 3, below for a description of the primers used for hepatocyte expression. The data was analyzed using Excel™ and Prism 8™.
(§2) HepGOs were expanded for one month, and then media were supplemented with 25 ng/mL BMP7 for 5 days before replacing the media with hepatocyte DM for one week. The data are from experiments that were done in at least in duplicate with three replicates per condition and were normalized to the endogenous control (β-Actin) and HepG2 GM cultures. The scale bar is 100 μm.

G6PC = assay: Q-PCR expression of G6PC in organoids; settings: fresh or frozen and re-expanded organoids, EM conditions C3-C5 (FIG. 5)
Description: as §1, §2

Cc1cccc(-c2nn(C(=S)Nc3ccccc3)cc2-c2ccnc3ccccc23)n1 [A8301]
number of organoids formed / expansion (primary hepatocytes): showed the least number of organoids being formed
HepGO number (HepG2 cells): significantly limited the 3D culture and expansion of HepG2 cells

glucagon
glucose production (HepGOs): significantly enhanced glucose production

B1: BMP7: bone morphogenetic protein 7 (protein, UniProt P18075 293-431, looked up)
Bone morphogenetic protein 7: STGSKQRSQNRSKTPKNQEALRMANVAENSSSDQRQACKKHELYVSFRDLGWQDWIIAPEGYAAYYCEGECAFPLNSYMNATNHAIVQTLVHFINPETVPKPCCAPTQLNAISVLYFDDSSNVILKKYRNMVVRACGCH
HepGO number (HepG2 cells): slightly but not significantly improved HepGO number

B2: OSM: oncostatin M, a member of the IL-6 family of cytokines (protein, UniProt P13725 26-221, looked up)
Oncostatin-M: AAIGSCSKEYRVLLGQLQKQTDLMQDTSRLLDPYIRIQGLDVPKLREHCRERPGAFPSEETLRGLGRRGFLQTLNATLGCVLHRLADLEQRLPKAQDLERSGLNIEDLEKLQMARPNILGLRNNIYCMAQLLDNSDTAEPTKAGRGASQPPTPTPASDAFQRKLEGCRFLHGYHRFMHSVGRVFSKWGESPNRSRR
induction of PCK1 expression (PCK1): tend to decrease at one month post differentiation
induction of G6PC expression (G6PC): tend to decrease at one month post differentiation
